This experiment addresses T1, Cloned human M1 receptor (CHRM1) stably expressed in HEK293 cells (Homo sapiens, UniProt P11229).
T1 construct: expressed in transfected cells; host or cells: HEK293
T1 sequence (P11229 1-460): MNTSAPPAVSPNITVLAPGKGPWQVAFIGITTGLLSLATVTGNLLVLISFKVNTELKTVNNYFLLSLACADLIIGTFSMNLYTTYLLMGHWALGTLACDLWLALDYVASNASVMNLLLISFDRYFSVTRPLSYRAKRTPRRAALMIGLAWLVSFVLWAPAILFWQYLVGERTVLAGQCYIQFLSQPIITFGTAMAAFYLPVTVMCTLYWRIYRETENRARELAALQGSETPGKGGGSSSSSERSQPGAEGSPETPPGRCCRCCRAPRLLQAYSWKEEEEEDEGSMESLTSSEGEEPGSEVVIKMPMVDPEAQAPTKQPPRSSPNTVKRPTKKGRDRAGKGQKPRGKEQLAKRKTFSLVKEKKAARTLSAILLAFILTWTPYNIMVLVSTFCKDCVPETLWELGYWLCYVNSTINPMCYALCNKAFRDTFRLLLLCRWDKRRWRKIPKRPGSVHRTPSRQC
Nature of the experiment: CHRM1 Ca++ Flux Assay (agonist mode, FDSS 7000EX). The class given is cell-based. The settings on record: for M1 FDSS PA: Percent Activity; for EC50: geometric mean if tested more than once. Summed up:
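Compounds tested as agonists at 11 concentrations in triplicate, with calcium traces captured over 3 minutes. Cells were HEK293 with stable human CHRM1 expression, plated overnight at 25K/well and loaded with calcium dye. Responses normalized to carbachol EC100 and fitted by four-parameter nonlinear regression.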

17 compounds from US12122761B2, “2-azaspiro[3.4]octane derivatives as M4 agonists” (NOVARTIS AG, priority 2019, dated 2024) can be followed below.

Usually EC50 stands for the midpoint of the concentration-response curve. A high value points to a need for much substance. In the case of `Fc1ccc(OC2CC3(COC3)C2)c(C2CCN([C@@H]3CCC4(C3)CN(c3cncnc3)C4)CC2)c1` (single isomer, unassigned) [Example 10F, (R)-6-(4-(2-((2-oxaspiro[3.3]heptan-6-yl)oxy)-5-fluorophenyl)piperidin-1-yl)-2-(pyrimidin-5-yl)-2-azaspiro[3.4]octane or (S)-6-(4-(2-((2-oxaspiro[3.3]heptan-6-yl)oxy)-5-fluorophenyl)piperidin-1-yl)-2-(pyrimidin-5-yl)-2-azaspiro[3.4]octane], the “M1 FDSS PA” value was 0% and the EC50 was above 25000 nM.
Taken in the same sequence, the figures for `Fc1ccc(OC2CCOCC2)c(C2CCN([C@@H]3CCC4(C3)CN(c3cncnc3)C4)CC2)c1` (single isomer, unassigned) [Example 10G, (R)-6-(4-(5-fluoro-2-((tetrahydro-2H-pyran-4-yl)oxy)phenyl)piperidin-1-yl)-2-(pyrimidin-5-yl)-2-azaspiro[3.4]octane or (S)-6-(4-(5-fluoro-2-((tetrahydro-2H-pyran-4-yl)oxy)phenyl)piperidin-1-yl)-2-(pyrimidin-5-yl)-2-azaspiro[3.4]octane] were 64% and 63 nM.
Taken in the same sequence, the figures for `Fc1ccc(OC2CCOCC2)c(C2CCN([C@@H]3CCC4(C3)CN(c3cncnc3)C4)CC2)c1` (single isomer, unassigned) [Example 10H, (R)-6-(4-(5-fluoro-2-((tetrahydro-2H-pyran-4-yl)oxy)phenyl)piperidin-1-yl)-2-(pyrimidin-5-yl)-2-azaspiro[3.4]octane or (S)-6-(4-(5-fluoro-2-((tetrahydro-2H-pyran-4-yl)oxy)phenyl)piperidin-1-yl)-2-(pyrimidin-5-yl)-2-azaspiro[3.4]octane] were 36% and 1390 nM.
Regarding `COc1ccccc1C1CCN([C@H]2CCC3(C2)CN(c2ncco2)C3)CC1` (single isomer, unassigned) [Example 10I, S)-2-(6-(4-(2-methoxyphenyl)piperidin-1-yl)-2-azaspiro[3.4]octan-2-yl)oxazole or (R)-2-(6-(4-(2-methoxyphenyl)piperidin-1-yl)-2-azaspiro[3.4]octan-2-yl)oxazole], the “M1 FDSS PA” value was 0% and the EC50 is above 25000 nM.
Consider `COc1ccccc1C1CCN([C@H]2CCC3(C2)CN(c2ncco2)C3)CC1` (single isomer, unassigned) [Example 10J, (S)-2-(6-(4-(2-methoxyphenyl)piperidin-1-yl)-2-azaspiro[3.4]octan-2-yl)oxazole or (R)-2-(6-(4-(2-methoxyphenyl)piperidin-1-yl)-2-azaspiro[3.4]octan-2-yl)oxazole], for which the “M1 FDSS PA” value was determined as 66% and the EC50 came out at 20 nM.
With `FC(F)(F)Oc1ccccc1C1CCN([C@@H]2CCC3(C2)CN(c2ncco2)C3)CC1` (single isomer, unassigned) [Example 10K, (R)-2-(6-(4-(2-(trifluoromethoxy)phenyl)piperidin-1-yl)-2-azaspiro[3.4]octan-2-yl)oxazole or (S)-2-(6-(4-(2-(trifluoromethoxy)phenyl)piperidin-1-yl)-2-azaspiro[3.4]octan-2-yl)oxazole], the “M1 FDSS PA” value was 65% and the EC50 came out at 94 nM.
Taken in the same sequence, the figures for `FC(F)(F)Oc1ccccc1C1CCN([C@@H]2CCC3(C2)CN(c2ncco2)C3)CC1` (single isomer, unassigned) [Example 10L, (R)-2-(6-(4-(2-(trifluoromethoxy)phenyl)piperidin-1-yl)-2-azaspiro[3.4]octan-2-yl)oxazole or (S)-2-(6-(4-(2-(trifluoromethoxy)phenyl)piperidin-1-yl)-2-azaspiro[3.4]octan-2-yl)oxazole] were 50% and 736 nM.
For `FC(F)(F)Oc1ccccc1C1CCN([C@@H]2CCC3(C2)CN(c2nncs2)C3)CC1` (single isomer, unassigned) [Example 10M, (R)-2-(6-(4-(2-(trifluoromethoxy)phenyl)piperidin-1-yl)-2-azaspiro[3.4]octan-2-yl)-1,3,4-thiadiazole or (S)-2-(6-(4-(2-(trifluoromethoxy)phenyl)piperidin-1-yl)-2-azaspiro[3.4]octan-2-yl)-1,3,4-thiadiazole], the “M1 FDSS PA” value is 77% and the 50% effective concentration (EC50) worked out at 49 nM.
Taken in the same sequence, the figures for `FC(F)(F)Oc1ccccc1C1CCN([C@@H]2CCC3(C2)CN(c2nncs2)C3)CC1` (single isomer, unassigned) [Example 10N, (R)-2-(6-(4-(2-(trifluoromethoxy)phenyl)piperidin-1-yl)-2-azaspiro[3.4]octan-2-yl)-1,3,4-thiadiazole or (S)-2-(6-(4-(2-(trifluoromethoxy)phenyl)piperidin-1-yl)-2-azaspiro[3.4]octan-2-yl)-1,3,4-thiadiazole] were 0% and above 25000 nM.
In the same order, the values of `FC(F)Oc1ccccc1C1CCN([C@@H]2CCC3(C2)CN(c2nncs2)C3)CC1` (single isomer, unassigned) [Example 10O, (R)-2-(6-(4-(2-(difluoromethoxy)phenyl)piperidin-1-yl)-2-azaspiro[3.4]octan-2-yl)-1,3,4-thiadiazole or (S)-2-(6-(4-(2-(difluoromethoxy)phenyl)piperidin-1-yl)-2-azaspiro[3.4]octan-2-yl)-1,3,4-thiadiazole] are 83% and 44 nM.
Taken in the same sequence, the figures for `COc1ccccc1C1CCN([C@@H]2CCC3(C2)CN(c2ncns2)C3)CC1` (single isomer, unassigned) [Example 10Q, (R)-5-(6-(4-(2-methoxyphenyl)piperidin-1-yl)-2-azaspiro[3.4]octan-2-yl)-1,2,4-thiadiazole or (S)-5-(6-(4-(2-methoxyphenyl)piperidin-1-yl)-2-azaspiro[3.4]octan-2-yl)-1,2,4-thiadiazole] were 66% and 170 nM.
`COc1ccccc1C1CCN([C@@H]2CCC3(C2)CN(c2ncns2)C3)CC1` (single isomer, unassigned) [Example 10R, (R)-5-(6-(4-(2-methoxyphenyl)piperidin-1-yl)-2-azaspiro[3.4]octan-2-yl)-1,2,4-thiadiazole or (S)-5-(6-(4-(2-methoxyphenyl)piperidin-1-yl)-2-azaspiro[3.4]octan-2-yl)-1,2,4-thiadiazole]: the “M1 FDSS PA” value is recorded as 0% and the EC50 was above 25000 nM.
In the same order, the values of `O=C(N1CC2(CC[C@@H](N3CCC(c4cc(F)ccc4OC4CC5(COC5)C4)CC3)C2)C1)C1(F)CC1` (single isomer, unassigned) [Example 11A, (R)-(6-(4-(2-((2-oxaspiro[3.3]heptan-6-yl)oxy)-5-fluorophenyl)piperidin-1-yl)-2-azaspiro[3.4]octan-2-yl)(1-fluorocyclopropyl)methanone or (S)-(6-(4-(2-((2-oxaspiro[3.3]heptan-6-yl)oxy)-5-fluorophenyl)piperidin-1-yl)-2-azaspiro[3.4]octan-2-yl)(1-fluorocyclopropyl)methanone] are 9% and above 25000 nM.
Taken in the same sequence, the figures for `O=C(N1CC2(CC[C@@H](N3CCC(c4cc(F)ccc4OC4CC5(COC5)C4)CC3)C2)C1)C1(F)CC1` (single isomer, unassigned) [Example 11B, (R)-(6-(4-(2-((2-oxaspiro[3.3]heptan-6-yl)oxy)-5-fluorophenyl)piperidin-1-yl)-2-azaspiro[3.4]octan-2-yl)(1-fluorocyclopropyl)methanone or (S)-(6-(4-(2-((2-oxaspiro[3.3]heptan-6-yl)oxy)-5-fluorophenyl)piperidin-1-yl)-2-azaspiro[3.4]octan-2-yl)(1-fluorocyclopropyl)methanone] were 9% and 30 nM.
In the same order, the values of `O=C(N1CC2(CC[C@@H](N3CCC(c4ccccc4OC4CC5(COC5)C4)CC3)C2)C1)C1(F)CC1` (single isomer, unassigned) [Example 11C, (R)-(6-(4-(2-((2-oxaspiro[3.3]heptan-6-yl)oxy)phenyl)piperidin-1-yl)-2-azaspiro[3.4]octan-2-yl)(1-fluorocyclopropyl)methanone or (S)-(6-(4-(2-((2-oxaspiro[3.3]heptan-6-yl)oxy)phenyl)piperidin-1-yl)-2-azaspiro[3.4]octan-2-yl)(1-fluorocyclopropyl)methanone] are 1% and above 25000 nM.
Turning to `O=C(N1CC2(CC[C@@H](N3CCC(c4ccccc4OC4CC5(COC5)C4)CC3)C2)C1)C1(F)CC1` (single isomer, unassigned) [Example 11D, (R)-(6-(4-(2-((2-oxaspiro[3.3]heptan-6-yl)oxy)phenyl)piperidin-1-yl)-2-azaspiro[3.4]octan-2-yl)(1-fluorocyclopropyl)methanone or (S)-(6-(4-(2-((2-oxaspiro[3.3]heptan-6-yl)oxy)phenyl)piperidin-1-yl)-2-azaspiro[3.4]octan-2-yl)(1-fluorocyclopropyl)methanone], the “M1 FDSS PA” value was 1% and the EC50 is above 25000 nM.
In the case of `Fc1ccc(OC2CC3(COC3)C2)c(C2CCN([C@@H]3CCC4(C3)CN(c3nnco3)C4)CC2)c1` [Example 1B, (R)-2-(6-(4-(2-((2-oxaspiro[3.3]heptan-6-yl)oxy)-5-fluorophenyl)piperidin-1-yl)-2-azaspiro[3.4]octan-2-yl)-1,3,4-oxadiazole], the response was half-maximal at 322 nM (EC50). Further, the Emax (HEK293, Percent Activity, read-out: M1 FDSS PA) came out at 48%.
